Experimental data: patent publication US20260021186A1, “Fatty Acid-D-Amino Acid Peptides Conjugates as Anaplerotic Compounds for Use in Treating Propionic Acidemia, Methylmalonic Acidurias, and Energy Metabolic Disorders” (University of Pittsburgh - Of the Commonwealth System of …, priority 2022, published 2026)

How the values were obtained:
PA patients = details: clinical study initiated in 2008; cited from earlier work
[1] = system: propionic acidemia (PA) fibroblast cell line Fb900; assay: Mitochondrial ROS production using MitoSOX Red; type: cell-based, human; details: FIG. 15C; 180 and 640 μM, 72 h
Excerpt: (§1) FIGS. 15A-15D are graphs showing the measurement of mitochondrial reactive oxygen species (ROS) production using MitoSOX Red as Superoxide indicator probe. FIG. 15A is a graph showing control fibroblast cell line FB826 treated with PMA010, PMA011, PMA019, and PMA020. FIG. 15B is a graph showing propionic acidemia (PA) patients' fibroblast cell linc Fb859 treated with PMA010, PMA011, PMA019, and PMA020. FIG. 15C is a graph showing propionic acidemia (PA) patients' fibroblast cells line Fb900 treated with PMA010, PMA011, PMA019, and PMA020. FIG. 15D is a graph comparing ROS production levels in response to treatment with PMA011 in Control fibroblast cell line (FB826), PA fibroblast cell line (Fb900), and glutaric acidemia II (GA II) patient fibroblast cell lines (Fb930, Fb961). Data are the average of readings from 3 replicate wells.
(§2) Measurement of mitochondrial ROS production using MitoSOX Red as superoxide indicator probe: control (Fb826), PA patient (Fb859, Fb900) and GA II patient (Fb930, Fb961) fibroblasts were grown in regular DMEM media containing glucose/pyruvate/L-glutamine until 85-90% confluency. The cells were harvested and seeded at a concentration of 25,000 cells/80 μl (n=3) in cell culture treated black wall 96 well microplate with clear bottom in regular DMEM media containing glucose/pyruvate/L-glutamine and incubated overnight at 37° C. in a 5% CO2 incubator. Following day, the culture media was replaced in designated wells with the following for 72 h: 150 μl regular DMEM (Glucose+10% FBS+sodium pyruvate+L-glutamine+0.5 mM carnitine). 150 μl of Regular DMEM containing experimental compounds (180 and 640 μM) PMA010 or PMA011 or PMA 019 and (640 μM) PMA020 in control and propionic acidemia patient fibroblasts. 150 μl of regular DMEM containing experimental compounds (600 and 1200 μM) PMA011 in Fb930 and (1200 μM) PMA011 in Fb961 GA II patient fibroblast. After 72 h incubation the wells were washed twice with 150 μL of Seahorse XFDMEM base media and in respective designated wells the following Assay buffer (150 μL of seahorse XFDMEM base media containing glucose, sodium pyruvate and Glutamine) was used along with 5 μM MitoSOX reagent and incubated at 37° C. non-CO2 incubator for 15 minutes protected from light. After 15 minutes incubation the cells were washed twice with 150 μL of seahorse XFDMEM base media and replaced with measurement buffer, which is same as the wash buffer. The fluorescence was monitored with excitation at 520 nm and emission at 580 nm. Finally, cells were lysed, and protein content was determined. Data is normalized to protein concentration and fluorescence is reported as MitoSOX Red (AFU)/mg protein.

[2] = system: glutaric acidemia II (GA II) fibroblast cell line Fb961; assay: Mitochondrial ROS production using MitoSOX Red; type: cell-based, human; details: FIG. 15D; 1200 μM, 72 h; preliminary test
Excerpt: as §1, §2

[3] = system: glutaric acidemia II (GA II) fibroblast cell line Fb930; assay: Mitochondrial ROS production using MitoSOX Red; type: cell-based, human; details: FIG. 15D; 600 and 1200 μM, 72 h; preliminary test
Excerpt: as §1, §2

[4] = system: Fb859 propionic acidemia patient fibroblasts; assay: Lysine succinylation of cellular proteins by immunofluorescence confocal microscopy; type: cell-based, human; details: media without glucose; for lysine succinylation (green staining) compared to untreated cells: FIG. 7, 90 μM, 72 hours, glutamine or pyruvate, lipid stripped FBS; for lysine succinylation (green) signal: FIGS. 8A-8F, 30 μM and 90 μM, pyruvate, glutamine, stripped FBS
Experimental: FIG. 7 are immunocytochemistry photomicrographs showing the effect of incubation of Fb859 propionic acidemia patient fibroblasts on for lysine succinylation with 90 μM of PMA010, 90 μM of PMA011, 90 μM of succinic acid, 90 μM of methylmalonic acid, or 90 μM adipic acid for 72 hours. Immunocytochemistry of the fibroblast cells were stained for anti-succinyllysine antibody, anti-MTCO1 antibody and DAPI for nuclei. Instrument: Zeiss LSM 710 confocal Microscopy. Magnification: 40×. The cells were grown in glass coverslips at a seeding density of 3-5×10^4 cells. The media for untreated and treatment groups had no glucose, glutamine or pyruvate, and lipid stripped FBS was included instead of regular FBS. Scale bar=20 μm.
FIGS. 8A-8F are a comparison of lysine succinylation of cellular proteins visualized by immunofluorescence confocal microscopy in a Propionic Acidemia (Fb859) patient untreated (FIG. 8A) and treated with 30 μM and 90 μM of D-Serine (FIG. 8B), 30 µM and 90 μM of PMA007 (FIG. 8C), or 30 μM and 90 μM of PMA010 (FIG. 8D). Scale bar=20 μm. FIG. 8E is a bar graph showing the quantification of the percent change in lysine succinylation (green) signal, from the immunofluorescence confocal micrographs of FIGS. 8B and 8C, in response to the treatment of D-serine and PMA007. FIG. 8F is a bar graph showing the quantification of the percent change in lysine succinylation (green) signal, from the immunofluorescence confocal micrographs of a D-Serine repeat experiment and FIG. 8D, in response to the treatment of D-serine and PMA010. Asterisks indicate statistical significance calculated at the raw data level (n=3); **P<0.01, ***P<0.001, ****P<0.0001 statistically compared to untreated. Statistical analysis used T-test.
Immunohistochemistry: Patient cells were grown in glass coverslips at a seeding density of 3-5×10^4 cells. The media for untreated and treatment groups had no glucose, glutamine or pyruvate, and lipid stripped FBS was included instead of regular FBS. NIH Image J software was used to quantify the fluorescence intensity from 50-60 cells per group. Immunocytochemistry of propionic acidemia patient (Fb859) fibroblast cells lines stained for anti-succinyllysine (Green), anti-MTCO1 (Red), or anti-TOMM20 antibodies, and DAPI (Blue) for nuclei. Instrument: Zeiss LSM 710 confocal Microscopy. Statistical analysis used Tukey multiple range test. ****P<0.0001, [PMA010] (90 μM) treatment group statistically compared to control cells grown in the presence of regular complete DMEM media, untreated and [PMA010] (30 μM) cells grown in the absence of glucose/pyruvate/L-glutamine.

HEK293 PCCA−/− cells = assay: as above; type: cell-based, human; details: FIGS. 9C, 9D; 30 μM and 90 μM; media without glucose, pyruvate, and glutamine
Experimental: FIGS. 9A-9F are a comparison of lysine succinylation of cellular proteins visualized by immunofluorescence confocal microscopy in human HEK293 control and HEK293 PCCA^−/− cells untreated (FIGS. 9A and 9B) and treated with 30 μM and 90 μM of PMA007 (FIG. 9C) or 30 μM and 90 μM of PMA010 (FIG. 9D). The cells in FIGS. 9B, 9C, and 9D were grown in media without glucose, pyruvate, and glutamine. Scale bar=20 μm. FIG. 9E is a bar graph showing the quantification of the percent change in lysine succinylation (green) signal, from the immunofluorescence confocal micrographs of FIGS. 9B and 9C, in response to the treatment of PMA007. FIG. 9F is a bar graph showing the quantification of the percent change in lysine succinylation (green) signal, from the immunofluorescence confocal micrographs of FIGS. 9B and 9D, in response to the treatment of PMA010. Asterisks indicate statistical significance calculated at the raw data level (n=3); **P<0.01. ****P<0.0001 statistically compared to untreated. Statistical analysis used T-test.
FIGS. 9A-9F are a comparison of lysine succinylation of cellular proteins visualized by immunofluorescence confocal microscopy in human HEK293 control and in untreated and treated HEK293 PCCA^−/− knock out cells. […] The PMA007 treatment data in the bar graph of FIG. 9E are the quantitation of the images of FIG. 9C compared to untreated control in FIG. 9B. […]

PA patient cells, Fb859 = assay: Measurement of mitochondrial respiration (Seahorse XF MitoStress test, OCR); type: cell-based, human; details: FIGS. 12A-12D; 30 μM and 90 μM for 72 h
Experimental: Measurement of Mitochondrial Respiration Seahorse: Fb859 cells were grown in regular DMEM media until 85-90% confluency. The cells were harvested and seeded at a concentration of 25,000 cells/80 μl (n=8 replicates) in poly-D lysine coated XFe seahorse 96well plate in regular DMEM media and incubated overnight at 37° C. in a 5% CO2 incubator. Following day, the culture media was replaced in designated wells with the following for 72 h:180 μl of Specialty Media A (seahorse XFDMEM base media+10% fat stripped FBS+Glucose+sodium pyruvate+L-glutamine+0.5 mM carnitine). 180 μl of Specialty Media B (scahorse XFDMEM base media+10% stripped FBS+0.5 mM carnitine and no added glucose, sodium pyruvate or glutamine). 180 μl of Specialty media B containing experimental compounds. After 72 h incubation the Specialty media A & B was replaced in respective designated wells with 180 μL Seahorse XF DMEM base media containing glucose, sodium pyruvate. […] OCR was determined (Seahorse XF MitoStress test). Finally, cells were lysed, and protein content was determined. […]
Measurement of Mitochondrial Respiration: Control Fb826 and Patient Fb859 cells were grown in regular DMEM media without adding extra glutamine until 85-90% confluency. […] Oxygen consumption rate (OCR) was determined (Seahorse XF MitoStress test). Finally, cells were lysed, and protein content was determined. […]

rat liver mitochondrial = details: in vitro; cited from earlier work

SMILES: O=C(O)CC(O)(CC(=O)O)C(=O)O [citrate]
- clinical benefit of supplementation (PA patients): can be beneficial in some cases

SMILES: CC(C(=O)O)C(=O)N[C@H](C)C(=O)N[C@H](Cc1c[nH]cn1)C(=O)O (stereo partly drawn) [PMA011, 3-(((R)-1-(((R)-1-carboxy-2-(1H-imidazol-4-yl)ethyl)amino)-1-oxopropan-2-yl)amino)-2-methyl-3-oxopropanoic acid]
- ROS detected (MitoSOX Red) [1]: similarly effective
- ROS detected (MitoSOX Red) compared to no treatment [2]: significant decrease in ROS
- ROS detected (MitoSOX Red) compared to no treatment [3]: significant decrease in ROS
- lysine succinylation (green staining) compared to untreated cells [4]: obvious increase in the green staining

SMILES: CC(C(=O)O)C(=O)O [methylmalonic acid]
- lysine succinylation (green staining) compared to untreated cells [4]: obvious increase in the green staining

SMILES: N[C@H](COC(=O)CCCCC(=O)O)C(=O)N[C@@H](Cc1c[nH]cn1)C(=O)O [PMA007, 6-((R)-2-amino-3-(((S)-1-carboxy-2-(1H-imidazol-4-yl)ethyl)amino)-3-oxopropoxy)-6-oxohexanoic acid]
- lysine succinylation (green) signal (HEK293 PCCA−/− cells): green color was restored
- oxygen consumption parameters compared to individual components D-Serine and D-Histidine (PA patient cells, Fb859): improved
- lysine succinylation (green) signal [4]: Restoration of lysine succinylation (green) signal

SMILES: O=C(O)CCCCC(=O)O [adipic acid, reference compound]
- lysine succinylation (green staining) compared to untreated cells [4]: obvious increase in the green staining

SMILES: N[C@H](CO)C(=O)O [D-serine, reference compound]
- lysine succinylation (green) signal [4]: Restoration of lysine succinylation (green) signal

SMILES: O=C(O)CCC(=O)O [succinic acid, reference compound]
- lysine succinylation (green staining) compared to untreated cells [4]: obvious increase in the green staining

SMILES: O=C(O)C[C@H](O)C(=O)O [L-malate]
- reduction of propionate level (rat liver mitochondrial): 46%
- reduction of propionyl-CoA levels in the mitochondrial matrix (rat liver mitochondrial): 62%
